Some test systems named below: 786-0; A549; BT-549; CCRF-CEM; HL-60; K562; M14; MDA-MB-435; MDA-N; NCI-H460; NCI/ADR-RES; RXF 393; SF-295; SK-MEL-2; SN12C; SW-620; TK-10; U-251; UACC-257; UACC-62.
Holding throughout (assay): inhibition of tumour cell growth, NCI panel, 48 h

This is an account of results in ChEMBL document CHEMBL1201862, “PubChem BioAssay data set” (2004).

Each structure is given as a SMILES string.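 Briefly, cells in 96-well plates were exposed to five compound concentrations for 48 h, and endpoints were estimated by linear interpolation. Abbreviation: GI50, concentration required for 50% inhibition of growth.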 The source made the active and inactive calls. Rule as the data show it: active = GI50 up to about 1.1 µM and inactive = higher. Some results are limits rather than exact numbers.

Consider `COc1nc2ncc([C@@H](OC(C)=O)[C@@H](COC(C)=O)OC(C)=O)nc2c(=O)[nH]1`, for which the GI50 in the assay on 786-0, with A549, in the assay on BT-549, in the assay with CCRF-CEM, in the assay on HL-60 and with K562 was > 100 µM (inactive) in each case. Besides, the GI50 in the assay on M14, in the assay with MDA-MB-435, in the assay with MDA-N, with NCI-H460, in the assay on NCI/ADR-RES and in the assay with RXF 393 was > 100 µM (inactive) in each case. Moreover, the GI50 in the assay with SF-295, in the assay on SK-MEL-2, in the assay on SN12C, with SW-620, with TK-10 and in the assay with U-251 was > 100 µM (inactive) each time. Also, the GI50 with UACC-257 and with UACC-62 was > 100 µM (inactive) each time.

Take `Oc1ccc(Cn2c(-c3ccc(O)c(O)c3)nc3ccccc32)cc1O`: the GI50 in the assay with 786-0 was 9.44 µM (inactive); in the assay with A549, 18.2 µM (inactive); in the assay on BT-549, 10.4 µM (inactive); with CCRF-CEM, 3.37 µM (inactive); in the assay on HL-60, 16.8 µM (inactive); with K562, 10.8 µM (inactive). Further, the GI50 in the assay on M14 is 13.9 µM (inactive); in the assay on MDA-MB-435, 12.8 µM (inactive); with MDA-N it was 15 µM (inactive); with NCI-H460, 15.8 µM (inactive); in the assay on NCI/ADR-RES, 32.9 µM (inactive); in the assay on RXF 393, 29.4 µM (inactive). Also, the GI50 is 23.6 µM (inactive) with SF-295; 18.4 µM (inactive) in the assay with SK-MEL-2; 10.1 µM (inactive) in the assay on SN12C; 13.4 µM (inactive) in the assay on SW-620; 9.64 µM (inactive) with TK-10; 5.09 µM (inactive) in the assay on U-251. In addition, the GI50 in the assay with UACC-257 is 33 µM (inactive).

Take `COc1ccc(C)cc1NC(=S)N/N=C/c1ccco1`: the GI50 with 786-0 was 38 µM (inactive); in the assay with A549, 48.4 µM (inactive); in the assay with BT-549, 53.8 µM (inactive); in the assay with CCRF-CEM it was 29 µM (inactive); with HL-60 it was 22 µM (inactive); in the assay on K562 it was 25.9 µM (inactive). The GI50 in the assay on M14 is 34.6 µM (inactive); in the assay on MDA-MB-435, 16 µM (inactive); in the assay with MDA-N, 18.6 µM (inactive); in the assay with NCI-H460, 34.1 µM (inactive); in the assay on NCI/ADR-RES it was 31.4 µM (inactive); in the assay on RXF 393, 52.1 µM (inactive). Also, the GI50 was 40.2 µM (inactive) with SF-295; 16.6 µM (inactive) in the assay on SK-MEL-2; 45.3 µM (inactive) with SN12C; 36.5 µM (inactive) in the assay with SW-620; 30.9 µM (inactive) with UACC-257; 46.8 µM (inactive) with UACC-62.

For `Cc1cccc2c(N)c3cccc(C(=O)NCC[N+](C)(C)Cc4sccc4[N+](=O)[O-])c3nc12`, the GI50 in the assay on 786-0 was 5.56 µM (inactive); with A549 it was 0.491 µM (active); in the assay with BT-549 it was 22 µM (inactive); in the assay with CCRF-CEM, > 100 µM (inactive); with HL-60, > 100 µM (inactive); in the assay with K562, 3.64 µM (inactive). For the same compound, the GI50 with M14 is 13.8 µM (inactive); with MDA-MB-435, 40.6 µM (inactive); with MDA-N, 19.6 µM (inactive); with NCI/ADR-RES it was 51.4 µM (inactive); with RXF 393 it was 12.9 µM (inactive); in the assay on SF-295 it was 2.64 µM (inactive). For the same compound, the GI50 in the assay on SK-MEL-2 was 72.9 µM (inactive); in the assay on SN12C, 0.332 µM (active); with SW-620, 5.86 µM (inactive); with TK-10, 25.9 µM (inactive); in the assay with U-251, 6.47 µM (inactive); in the assay on UACC-257 it was 26.9 µM (inactive). For the same compound, in the assay on UACC-62, the GI50 was 13.6 µM (inactive).

Regarding `CCN(CC)c1ccc(/C=C/C=C2C(=O)NC(=S)NC2=O)cc1`, the GI50 in the assay with 786-0 was 27.7 µM (inactive); in the assay on A549 it was > 100 µM (inactive); in the assay on BT-549, 13.1 µM (inactive); with CCRF-CEM, 2.81 µM (inactive); in the assay with HL-60, 2.62 µM (inactive); in the assay with M14, 35.4 µM (inactive). Moreover, the GI50 with MDA-MB-435 is 8.67 µM (inactive); in the assay on MDA-N it was 12.4 µM (inactive); in the assay on NCI-H460 it was > 100 µM (inactive); in the assay on NCI/ADR-RES it was 10.4 µM (inactive); with RXF 393 it was 8.07 µM (inactive); in the assay with SF-295 it was > 83.6 µM (inactive). In addition, the GI50 is > 68.9 µM (inactive) with SK-MEL-2; 29.9 µM (inactive) in the assay on SN12C; > 33.9 µM (inactive) with SW-620; > 62.2 µM (inactive) in the assay on TK-10; 21 µM (inactive) in the assay with U-251; 58.6 µM (inactive) in the assay on UACC-257. Moreover, in the assay with UACC-62, the GI50 is 15.1 µM (inactive).

As to `CCOC(=O)/C=C/c1cccc(F)c1`, the GI50 with 786-0, with A549, in the assay on BT-549, in the assay with CCRF-CEM, in the assay with HL-60 and in the assay with K562 was > 100 µM (inactive) each time. The GI50 in the assay on M14, in the assay on MDA-MB-435, in the assay on MDA-N, in the assay on NCI-H460, in the assay with NCI/ADR-RES and in the assay with RXF 393 was > 100 µM (inactive) each time. Moreover, the GI50 with SK-MEL-2, with SN12C, in the assay with SW-620, in the assay on TK-10, with U-251 and with UACC-257 was > 100 µM (inactive) throughout. Further, in the assay on UACC-62, the GI50 is > 100 µM (inactive).

As for `COC(=O)c1c(OC(C)=O)ccc2c1c1c(n2Cc2ccccc2)C(=O)c2ccccc2C1=O`, the GI50 in the assay with 786-0 is 25.6 µM (inactive); with A549, 26.4 µM (inactive); in the assay on BT-549, 23.2 µM (inactive); in the assay on CCRF-CEM, 36.3 µM (inactive); in the assay with HL-60 it was 25.8 µM (inactive); in the assay with K562 it was 25.7 µM (inactive). Moreover, the GI50 was 22 µM (inactive) with M14; 18.7 µM (inactive) in the assay with MDA-MB-435; 18.7 µM (inactive) with MDA-N; 30.1 µM (inactive) with NCI-H460; 24 µM (inactive) with NCI/ADR-RES; 18.8 µM (inactive) in the assay on RXF 393. Besides, the GI50 in the assay on SF-295 was 17.5 µM (inactive); with SK-MEL-2 it was 18.7 µM (inactive); in the assay on SN12C, 19.1 µM (inactive); in the assay with TK-10, 33.7 µM (inactive); in the assay with U-251, 19.4 µM (inactive); in the assay with UACC-257, 10.7 µM (inactive). Also, the GI50 in the assay with UACC-62 was 22.5 µM (inactive).

For `CC1CC/C(=C\c2ccc(F)cc2)C2=C1C(c1ccc(F)cc1)N1C(=O)CSC1=N2` (centres undefined), the GI50 is > 100 µM (inactive) in the assay on 786-0; > 100 µM (inactive) in the assay with BT-549; 41.2 µM (inactive) in the assay on CCRF-CEM; 4.35 µM (inactive) in the assay on HL-60; 21.9 µM (inactive) in the assay with K562; > 100 µM (inactive) with M14. Further, the GI50 in the assay with MDA-MB-435 is 91 µM (inactive); in the assay with MDA-N it was > 100 µM (inactive); in the assay with NCI-H460, 30.8 µM (inactive); in the assay with NCI/ADR-RES, 49.9 µM (inactive); with RXF 393, 21.7 µM (inactive); in the assay with SF-295, 45.6 µM (inactive). The GI50 in the assay with SK-MEL-2 was > 100 µM (inactive); in the assay on SN12C, > 100 µM (inactive); in the assay with SW-620 it was > 100 µM (inactive); with TK-10, > 100 µM (inactive); with U-251, 93.3 µM (inactive); in the assay on UACC-257, 62.1 µM (inactive). The GI50 in the assay on UACC-62 is > 100 µM (inactive).

For `Cc1cc(S(=O)(=O)n2ccnc2Oc2ccccc2)c(SSc2cc(Cl)c(C)cc2S(=O)(=O)n2ccnc2Oc2ccccc2)cc1Cl`, the GI50 in the assay with 786-0 was 93.3 µM (inactive); with A549, > 100 µM (inactive); with BT-549, > 100 µM (inactive); in the assay with HL-60, 2.32 µM (inactive); in the assay on K562 it was > 100 µM (inactive); in the assay with M14 it was > 100 µM (inactive). For the same compound, the GI50 in the assay on MDA-MB-435 was > 100 µM (inactive); in the assay with MDA-N, > 100 µM (inactive); in the assay with NCI-H460 it was > 100 µM (inactive); in the assay with NCI/ADR-RES it was 43.4 µM (inactive); in the assay on RXF 393 it was > 100 µM (inactive); in the assay on SK-MEL-2, > 100 µM (inactive). The GI50 in the assay on SN12C was 85.5 µM (inactive); with SW-620, > 100 µM (inactive); in the assay with TK-10, > 100 µM (inactive); in the assay on U-251 it was > 100 µM (inactive); with UACC-257, > 100 µM (inactive); with UACC-62, > 100 µM (inactive).

As for `Cc1c(O)nc(-n2[nH]c3c(c2=O)CCCC3)[nH]c1=O`, the GI50 with 786-0, with BT-549, with CCRF-CEM, in the assay on HL-60, in the assay with K562 and with M14 was > 100 µM (inactive) in each case. The GI50 with MDA-MB-435, in the assay with MDA-N, in the assay on NCI-H460, in the assay with NCI/ADR-RES, in the assay with RXF 393 and in the assay on SF-295 was > 100 µM (inactive) each time. The GI50 with SK-MEL-2, in the assay with SN12C, in the assay on SW-620, in the assay on TK-10, in the assay with U-251 and in the assay with UACC-257 was > 100 µM (inactive) each time. Moreover, in the assay with UACC-62, the GI50 is > 100 µM (inactive).
